# Key:
# [1] = system: mice; experiment: In vivo glucose tolerance test (GTT); parameters: species or system mouse; conditions: male B6 mice, 16 h fast, 10 nmol/kg IP peptide, then 2 g/kg IP glucose; blood glucose 0-120 min; n = 8; one-way ANOVA, Dunnett's post-test
# Procedure: Given the promising activation and stability data, we next tested our peptides in vivo using a standard glucose tolerance test (GTT). More specifically, following a 16h fast, mice were injected intraperitoneally (IP) with 10 nmol/kg peptide followed by 2 g/kg of glucose.
# In Vivo GTT Test: Male B6 mice at 10−12 weeks of age were housed (8 mice/cage) at a constant RT of 24 °C on a normal day-light cycle and provided a standard diet ad libitum. After 1 week of acclimatization, B6 mice (n = 8 per treatment arm) were fasted for 16 h overnight, and the following morning baseline blood glucose levels were measured (OneTouch), followed by intraperitoneal (IP) injection of vehicle (saline) or the indicated peptide (10 nmol/kg). Thirty minutes later, the mice were treated with a bolus IP injection of glucose (2 g/kg, 20% aqueous solution), followed by serial blood glucose monitoring at 0, 15, 30, 60, and 120 min. Samples for the measurement of blood glucose were obtained from the saphenous vein and collected into heparinized capillary tubes. All animal experiments were approved by and performed in accordance with the guidelines and regulations set forth by the Institutional Animal Care and Use Committee of the Dana-Farber Cancer Institute.
# [2] = Solubility of stock solution for CD spectroscopy; assay type: physicochemical; conditions: 5 mM stock in 10% acetonitrile
# [3] = Human serum stability assay (RP-HPLC); conditions: 50% (v/v) human serum, 50 μM peptide, 37 °C, up to 48 h, n = 3
# [4] = clinically marketed as Forteo; cited from earlier work
compound,measurement,setting,value
CCCCCCCCCCCCCCCCCCOCCOCCOCCOCCOCCC(=O)N[C@@H](CO)C(=O)NCCCC[C@H](NC(=O)[C@H](C)NC(=O)[C@H](C)NC(=O)[C@H](CCC(N)=O)NC(=O)CNC(=O)[C@H](CCC(=O)O)NC(=O)[C@H](CC(C)C)NC(=O)[C@H](Cc1ccc(O)cc1)NC(=O)[C@H](CO)NC(=O)[C@H](CO)NC(=O)[C@@H](NC(=O)[C@H](CC(=O)O)NC(=O)[C@H](CO)NC(=O)[C@@H](NC(=O)[C@H](Cc1ccccc1)NC(=O)[C@@H](NC(=O)CNC(=O)[C@H](CCC(=O)O)NC(=O)C(C)(C)NC(=O)[C@@H](N)Cc1c[nH]cn1)[C@@H](C)O)[C@@H](C)O)C(C)C)C(=O)N[C@@H](CCC(=O)O)C(=O)N[C@@H](Cc1ccccc1)C(=O)N[C@H](C(=O)N[C@@H](C)C(=O)N[C@@H](Cc1c[nH]c2ccccc12)C(=O)N[C@@H](CC(C)C)C(=O)N[C@H](C(=O)N[C@@H](CCCCN)C(=O)NCC(=O)N[C@@H](CCCNC(=N)N)C(=O)NCC(=O)O)C(C)C)[C@@H](C)CC [G1],glycemic control in acute GTT (blood glucose AUC) compared to unmodified GLP-1,[1],statistically significant glycemic control
CC[C@H](C)[C@H](NC(=O)[C@H](Cc1ccccc1)NC(=O)[C@H](CCC(=O)O)NC(=O)[C@H](CCCCNC(=O)COCCOCCNC(=O)COCCOCCNC(=O)CC[C@H](NC(=O)CCCCCCCCCCCCCCCCC(=O)O)C(=O)O)NC(=O)[C@H](C)NC(=O)[C@H](C)NC(=O)[C@H](CCC(N)=O)NC(=O)CNC(=O)[C@H](CCC(=O)O)NC(=O)[C@H](CC(C)C)NC(=O)[C@H](Cc1ccc(O)cc1)NC(=O)[C@H](CO)NC(=O)[C@H](CO)NC(=O)[C@@H](NC(=O)[C@H](CC(=O)O)NC(=O)[C@H](CO)NC(=O)[C@@H](NC(=O)[C@H](Cc1ccccc1)NC(=O)[C@@H](NC(=O)CNC(=O)[C@H](CCC(=O)O)NC(=O)C(C)(C)NC(=O)[C@@H](N)Cc1cnc[nH]1)[C@@H](C)O)[C@@H](C)O)C(C)C)C(=O)N[C@@H](C)C(=O)N[C@@H](Cc1c[nH]c2ccccc12)C(=O)N[C@@H](CC(C)C)C(=O)N[C@H](C(=O)N[C@@H](CCCNC(=N)N)C(=O)NCC(=O)N[C@@H](CCCNC(=N)N)C(=O)NCC(=O)O)C(C)C [Semaglutide],solubility as stock,[2],not soluble
same,stability in human serum (in words),[3],almost no sign of degradation up to 48 h
PTH(1–34): clinically marketed by Eli Lilly as Forteo,half-life in the blood,[4],~ 5 minutes
